This is an account of results in ChEMBL document CHEMBL1806455, “Synthesis, activity and pharmacokinetics of novel antibacterial 15-membered ring macrolones” (Eur J Med Chem, 2011).

≈ marks a conversion by molar mass, not a printed value.

Common to all, as to assay type: functional
The subject of assay [1] is Staphylococcus aureus. Nature of the assay: Antibacterial activity against erythromycin-sensitive Staphylococcus aureus ATCC 13709 by broth microdilution method. Background: In broth dilution the organism is exposed to a series of concentrations in liquid medium.
Assay [2] relates to Streptococcus pneumoniae. Nature of the assay: Antibacterial activity against erythromycin-sensitive Streptococcus pneumoniae SP030 by broth microdilution method.
Assay [3] has as its system Streptococcus pyogenes. The experiment in a line: Antibacterial activity against erythromycin-sensitive Streptococcus pyogenes 3565 by broth microdilution method.
In assay [4] the test system is Staphylococcus aureus. The experiment in a line: Antibacterial activity against efflux-mediated macrolide-resistant Staphylococcus aureus PK1 by broth microdilution method.
Assay [5] concerns Streptococcus pneumoniae. The experiment in a line: Antibacterial activity against efflux-mediated macrolide-resistant Streptococcus pneumoniae Ci137 by broth microdilution method.
In assay [6] the test system is Streptococcus pyogenes. Nature of the assay: Antibacterial activity against efflux-mediated macrolide-resistance Streptococcus pyogenes 2 Finland by broth microdilution method.
In assay [7] the test system is Staphylococcus aureus. The experiment in a line: Antibacterial activity against inducible macrolide-lincosamide-streptogramin B resistant Staphylococcus aureus 90256 by broth microdilution method.
The test system of assay [8] is Streptococcus pneumoniae. Nature of the assay: Antibacterial activity against inducible macrolide-resistant, constitutive lincosamide, streptogramin-resistant Streptococcus pneumoniae 134 GR M by broth microdilution method.
Assay [9] has as its system Streptococcus pyogenes. The experiment in a line: Antibacterial activity against inducible macrolide-lincosamide-streptogramin B resistant Streptococcus pyogenes Finland 11 by broth microdilution method.
Assay [10] has as its system Staphylococcus aureus. The experiment in a line: Antibacterial activity against constitutive macrolide, lincosamide, streptogramin-resistant Staphylococcus aureus PK2 by broth microdilution method.
The test system of assay [11] is Streptococcus pneumoniae. Nature of the assay: Antibacterial activity against constitutive macrolide, lincosamide, streptogramin-resistant Streptococcus pneumoniae 58 spain by broth microdilution method.
Assay [12] relates to Streptococcus pyogenes. Nature of the assay: Antibacterial activity against macrolide, lincosamide, streptogramin-resistant Streptococcus pyogenes 166 GR-Micro by broth microdilution method.
For assay [13], the system named is Haemophilus influenzae. The experiment in a line: Antibacterial activity against Haemophilus influenzae ATCC 49247 by broth microdilution method.
Assay [14] relates to Moraxella catarrhalis. Nature of the assay: Antibacterial activity against Moraxella catarrhalis ATCC 23246 by broth microdilution method.

As to `CC[C@H]1OC(=O)[C@H](C)[C@@H](O[C@H]2C[C@@](C)(OC)[C@@H](OC(=O)CCOCCNc3cc4c(=O)c(C(=O)OC(C)C)cn(C5CC5)c4cc3Cl)[C@H](C)O2)[C@H](C)[C@@H](O[C@@H]2O[C@H](C)C[C@H](N(C)C)[C@H]2O)[C@](C)(O)C[C@@H](C)CN(C)[C@H](C)[C@@H](O)[C@]1(C)O`, the MIC is 0.5 mg/L (≈ 0.428 µM) in [1]; not above 0.125 mg/L in assay [2]; not above 0.125 mg/L in assay [3]; 2 mg/L (≈ 1.71 µM) in [4]; not above 0.125 mg/L in assay [5]; not above 0.125 mg/L in [6]. Besides, the MIC in assay [7] is 2 mg/L (≈ 1.71 µM); in assay [8] it was not above 0.125 mg/L; in assay [9], not above 0.125 mg/L; in [10], more than 64 mg/L; in assay [11], not above 0.125 mg/L; in [12] it was not above 0.125 mg/L. Further, in assay [13], the MIC is 2 mg/L (≈ 1.71 µM).
Turning to `CC[C@H]1OC(=O)[C@H](C)[C@@H](O[C@H]2C[C@@](C)(OC)[C@@H](OC(=O)CCOCCNc3cc4c(=O)c(C(=O)OCCN5CCCC5)cn(C5CC5)c4cc3Cl)[C@H](C)O2)[C@H](C)[C@@H](O[C@@H]2O[C@H](C)C[C@H](N(C)C)[C@H]2O)[C@](C)(O)C[C@@H](C)CN(C)[C@H](C)[C@@H](O)[C@]1(C)O`, the MIC in [1] is 0.25 mg/L (≈ 0.204 µM); in [2] it was not above 0.125 mg/L; in assay [3] it was not above 0.125 mg/L; in [4] it was not above 0.125 mg/L; in [5] it was not above 0.125 mg/L; in assay [6], not above 0.125 mg/L. Further, the MIC in assay [7] is 1 mg/L (≈ 0.818 µM); in assay [8], not above 0.125 mg/L; in assay [9], not above 0.125 mg/L; in assay [10], more than 64 mg/L; in [11], not above 0.125 mg/L; in assay [12], not above 0.125 mg/L. Also, the MIC in [13] is 4 mg/L (≈ 3.27 µM); in [14], not above 0.125 mg/L.
On to `CCCOC(=O)c1cn(C2CC2)c2ccc(NCCOCCC(=O)O[C@H]3[C@H](C)O[C@@H](O[C@H]4[C@H](C)[C@@H](O[C@@H]5O[C@H](C)C[C@H](N(C)C)[C@H]5O)[C@](C)(O)C[C@@H](C)CN(C)[C@H](C)[C@@H](O)[C@](C)(O)[C@@H](CC)OC(=O)[C@@H]4C)C[C@@]3(C)OC)cc2c1=O`, for which the MIC in [1] was 0.5 mg/L (≈ 0.441 µM); in assay [2] it was not above 0.125 mg/L; in assay [3], not above 0.125 mg/L; in assay [4], 2 mg/L (≈ 1.76 µM); in [5], not above 0.125 mg/L; in [6], not above 0.125 mg/L. Also, the MIC was 4 mg/L (≈ 3.53 µM) in [7]; not above 0.125 mg/L in assay [8]; not above 0.125 mg/L in [9]; more than 64 mg/L in [10]; not above 0.125 mg/L in [11]; not above 0.125 mg/L in assay [12]. This compound gave an MIC in assay [13] of 2 mg/L (≈ 1.76 µM).
`CC[C@H]1OC(=O)[C@H](C)[C@@H](O[C@H]2C[C@@](C)(OC)[C@@H](OC(=O)CCOCCNc3ccc4c(c3)c(=O)c(C(=O)OC(C)C)cn4C3CC3)[C@H](C)O2)[C@H](C)[C@@H](O[C@@H]2O[C@H](C)C[C@H](N(C)C)[C@H]2O)[C@](C)(O)C[C@@H](C)CN(C)[C@H](C)[C@@H](O)[C@]1(C)O`: the MIC in assay [1] is 0.5 mg/L (≈ 0.441 µM); in assay [2], not above 0.125 mg/L; in [3], not above 0.125 mg/L; in assay [4], 8 mg/L (≈ 7.06 µM); in assay [5], not above 0.125 mg/L; in assay [6], not above 0.125 mg/L. In addition, the MIC in assay [7] is 16 mg/L (≈ 14.1 µM); in [8], not above 0.125 mg/L; in assay [9], not above 0.125 mg/L; in assay [10], more than 64 mg/L; in assay [11], not above 0.125 mg/L; in [12], not above 0.125 mg/L. In addition, the MIC in assay [13] and in assay [14] was 4 mg/L (≈ 3.53 µM) each time.
With `CCC(=O)CNC(=O)COC(=O)c1cn(C2CC2)c2ccc(NCCOCCC(=O)O[C@H]3[C@H](C)O[C@@H](O[C@H]4[C@H](C)[C@@H](O[C@@H]5O[C@H](C)C[C@H](N(C)C)[C@H]5O)[C@](C)(O)C[C@@H](C)CN(C)[C@H](C)[C@@H](O)[C@](C)(O)[C@@H](CC)OC(=O)[C@@H]4C)C[C@@]3(C)OC)cc2c1=O`, the MIC was 1 mg/L (≈ 0.821 µM) in assay [1]; not above 0.125 mg/L in assay [2]; not above 0.125 mg/L in [3]; 8 mg/L (≈ 6.57 µM) in assay [4]; not above 0.125 mg/L in [5]; not above 0.125 mg/L in [6]. The MIC in assay [7] is 16 mg/L (≈ 13.1 µM); in assay [8], not above 0.125 mg/L; in assay [9], not above 0.125 mg/L; in assay [10], more than 64 mg/L; in assay [11], not above 0.125 mg/L; in assay [12], not above 0.125 mg/L. In assay [13], this compound yielded an MIC of 4 mg/L (≈ 3.28 µM).
